Reference: ChEMBL document CHEMBL5365467 (J Med Chem, 2023)

How the values were obtained:
[1] = Metabolic stability in human liver microsome assessed as half life measured upto 45 mins in presence of NADPH by LC-MS/MS analysis; type: ADME; conditions: liver microsomes
[2] = Cmax in Beagle dog at 10 mg/kg, po measured upto 24 hrs by LC-MS/MS analysis; type: ADME, organism-based, Canis lupus familiaris; set-up: time < 24 hrs, dose 10 mg/kg, route po; conditions: in vivo
[3] = Metabolic stability in non human primate plasma assessed as half life measured after 2 hrs by LC-MS/MS analysis; type: ADME, cell-free; conditions: primates
[4] = Metabolic stability in mouse plasma assessed as parent compound remaining measured after 120 mins by LC-MS/MS analysis; type: ADME, cell-free; conditions: read-out: Stability
[5] = Metabolic stability in human plasma assessed as parent compound remaining measured after 120 mins by LC-MS/MS analysis; type: ADME, cell-free; conditions: read-out: Stability
[6] = Metabolic stability in dog liver microsome assessed as parent compound remaining measured at 120 mins in presence of NADPH by LC-MS/MS analysis; type: ADME, Canis lupus familiaris; conditions: liver microsomes, read-out: Stability
in vivo [7] = conditions: Sprague-Dawley, rat, po, 5 mg/kg
[8] = Metabolic stability in non human primate plasma assessed as parent compound remaining measured after 120 mins by LC-MS/MS analysis; type: ADME, cell-free; conditions: primates, read-out: Stability
VCaP [9] = experiment: Antitumor activity against human VCaP cells xenografted in CB17-SCID mouse assessed as tumor growth inhibition at 40 mg/kg, po administered for 21 days; conditions: 504 h, read-out: TGI
[10] = AUC (0 to t) in non human primate at 2 mg/kg, po measured upto 24 hrs by LC-MS/MS analysis; type: ADME, organism-based; set-up: time < 24 hrs, dose 2 mg/kg, route po; conditions: primates, in vivo
[11] = Metabolic stability in human plasma assessed as half life measured after 2 hrs by LC-MS/MS analysis; type: ADME, cell-free
[12] = Metabolic stability in mouse hepatocyte assessed as half life measured upto 120 mins by LC-MS/MS analysis; type: ADME, cell-based; conditions: hepatocytes
[13] = Half life in Sprague-Dawley rat at 5 mg/kg, po measured upto 24 hrs by LC-MS/MS analysis; conditions: in vivo
[14] = Half life in non human primate at 2 mg/kg, po measured upto 24 hrs by LC-MS/MS analysis; type: ADME, organism-based; conditions: primates, in vivo
[15] = target: Protein cereblon/Androgen receptor (Homo sapiens, UniProt P10275+Q96SW2, T878A); experiment: PROTAC activity at AR T878A mutant/CRBN in human LNCaP cells assessed as induction of androgen receptor degradation measured at 24 hrs by Western blot analysis; type: cell-based
[16] = Volume of distribution at steady state in ICR mouse at 2 mg/kg, iv measured upto 24 hrs by LC-MS/MS analysis; type: ADME, organism-based; conditions: in vivo, read-out: Vdss
[17] = Volume of distribution at steady state in non human primate at 1 mg/kg, iv measured upto 24 hrs by LC-MS/MS analysis; type: ADME, organism-based; conditions: primates, in vivo, read-out: Vdss
in vivo [18] = conditions: Sprague-Dawley, rat, po, 5 mg/kg; remark: listed apart in the source
[19] = Tmax in non human primate at 2 mg/kg, po measured upto 24 hrs by LC-MS/MS analysis; type: ADME, organism-based; conditions: primates, in vivo
[20] = Clearance in non human primate at 1 mg/kg, iv measured upto 24 hrs by LC-MS/MS analysis; type: ADME, organism-based; conditions: primates, in vivo
[21] = Oral bioavailability in ICR mouse at 5 mg/kg measured upto 24 hrs by LC-MS/MS analysis; type: ADME, organism-based; conditions: in vivo
[22] = Half life in Beagle dog at 1 mg/kg, iv measured upto 24 hrs by LC-MS/MS analysis; type: ADME, organism-based, Canis lupus familiaris; conditions: in vivo
[23] = Metabolic stability in dog liver microsome assessed as half life measured upto 45 mins in presence of NADPH by LC-MS/MS analysis; type: ADME, Canis lupus familiaris; conditions: liver microsomes
[24] = Metabolic stability in rat liver microsome assessed as half life measured upto 45 mins in presence of NADPH by LC-MS/MS analysis; type: ADME; conditions: liver microsomes
[25] = Clearance in ICR mouse at 2 mg/kg, iv measured upto 24 hrs by LC-MS/MS analysis; type: ADME, organism-based; conditions: in vivo
[26] = Metabolic stability in rat hepatocyte assessed as half life measured upto 120 mins by LC-MS/MS analysis; type: ADME, cell-based; conditions: hepatocytes
[27] = Half life in non human primate assessed as half life at 1 mg/kg, iv measured upto 24 hrs by LC-MS/MS analysis; type: ADME, organism-based; conditions: primates, in vivo
[28] = target: Protein cereblon/Androgen receptor (Homo sapiens, UniProt P10275+Q96SW2); experiment: PROTAC activity at AR/CRBN in AR-positive human VCaP cells assessed as induction of androgen receptor degradation measured at 24 hrs; type: cell-based; conditions: read-out: DC50
[29] = Half life in Beagle dog at 10 mg/kg, po measured upto 24 hrs by LC-MS/MS analysis; type: ADME, organism-based, Canis lupus familiaris; conditions: in vivo
[30] = AUC (0 to t) in Beagle dog at 1 mg/kg, iv measured upto 24 hrs by LC-MS/MS analysis; type: ADME, organism-based, Canis lupus familiaris; set-up: dose 1 mg/kg, time < 24 hrs, route iv; conditions: in vivo
[31] = Half life in ICR mouse at 5 mg/kg, po measured upto 24 hrs by LC-MS/MS analysis; type: ADME, organism-based; conditions: in vivo
[32] = Cmax in ICR mouse at 5 mg/kg, po measured upto 24 hrs by LC-MS/MS analysis; type: ADME, organism-based; set-up: time < 24 hrs, dose 5 mg/kg, route po; conditions: in vivo
[33] = Oral bioavailability in non human primate at 2 mg/kg measured upto 24 hrs by LC-MS/MS analysis; type: ADME, organism-based; conditions: primates, in vivo
[34] = Toxicity in CB17-SCID mouse assessed as body weight loss at 10 to 40 mg/kg, po administered for 21 days; type: organism-based; conditions: in vivo, 504 h, dose 10-40 mg/kg, time 21 day
[35] = Cmax in non human primate at 2 mg/kg, po measured upto 24 hrs by LC-MS/MS analysis; type: ADME, organism-based; set-up: dose 2 mg/kg, time < 24 hrs, route po; conditions: primates, in vivo
VCaP [36] = experiment: Growth inhibition in human VCaP cells
[37] = Metabolic stability in dog hepatocyte assessed as half life measured upto 120 mins by LC-MS/MS analysis; type: ADME, cell-based, Canis lupus familiaris; conditions: hepatocytes
[38] = Tmax in Sprague-Dawley rat at 5 mg/kg, po measured upto 24 hrs by LC-MS/MS analysis; type: ADME, organism-based; conditions: in vivo
[39] = Oral bioavailability in Beagle dog at 10 mg/kg measured upto 24 hrs by LC-MS/MS analysis; type: ADME, organism-based, Canis lupus familiaris; conditions: in vivo
VCaP [40] = experiment: Antitumor activity against human VCaP cells xenografted in CB17-SCID mouse assessed as tumor growth inhibition at 10 mg/kg, po administered for 21 days; type: functional; conditions: 504 h, time 21 day, read-out: TGI
[41] = Metabolic stability in mouse liver microsome assessed as parent compound remaining measured at 120 mins in presence of NADPH by LC-MS/MS analysis; type: ADME; conditions: liver microsomes, read-out: Stability
in vivo [42] = conditions: Sprague-Dawley, rat, iv, 2 mg/kg
[43] = Metabolic stability in dog plasma assessed as half life measured after 2 hrs by LC-MS/MS analysis; type: ADME, cell-free, Canis lupus familiaris
[44] = Tmax in Beagle dog at 10 mg/kg, po measured upto 24 hrs by LC-MS/MS analysis; type: ADME, organism-based, Canis lupus familiaris; conditions: in vivo
in vivo [45] = conditions: Sprague-Dawley, rat, po, 5 mg/kg; remark: listed apart in the source
[46] = Metabolic stability in rat plasma assessed as parent compound remaining measured after 120 mins by LC-MS/MS analysis; type: ADME, cell-free; conditions: read-out: Stability
[47] = Volume of distribution at steady state in Sprague-Dawley rat at 2 mg/kg, iv measured upto 24 hrs by LC-MS/MS analysis; conditions: in vivo

Protein cereblon/Androgen receptor (Homo sapiens, UniProt P10275+Q96SW2), sequence (P10275 whole entry): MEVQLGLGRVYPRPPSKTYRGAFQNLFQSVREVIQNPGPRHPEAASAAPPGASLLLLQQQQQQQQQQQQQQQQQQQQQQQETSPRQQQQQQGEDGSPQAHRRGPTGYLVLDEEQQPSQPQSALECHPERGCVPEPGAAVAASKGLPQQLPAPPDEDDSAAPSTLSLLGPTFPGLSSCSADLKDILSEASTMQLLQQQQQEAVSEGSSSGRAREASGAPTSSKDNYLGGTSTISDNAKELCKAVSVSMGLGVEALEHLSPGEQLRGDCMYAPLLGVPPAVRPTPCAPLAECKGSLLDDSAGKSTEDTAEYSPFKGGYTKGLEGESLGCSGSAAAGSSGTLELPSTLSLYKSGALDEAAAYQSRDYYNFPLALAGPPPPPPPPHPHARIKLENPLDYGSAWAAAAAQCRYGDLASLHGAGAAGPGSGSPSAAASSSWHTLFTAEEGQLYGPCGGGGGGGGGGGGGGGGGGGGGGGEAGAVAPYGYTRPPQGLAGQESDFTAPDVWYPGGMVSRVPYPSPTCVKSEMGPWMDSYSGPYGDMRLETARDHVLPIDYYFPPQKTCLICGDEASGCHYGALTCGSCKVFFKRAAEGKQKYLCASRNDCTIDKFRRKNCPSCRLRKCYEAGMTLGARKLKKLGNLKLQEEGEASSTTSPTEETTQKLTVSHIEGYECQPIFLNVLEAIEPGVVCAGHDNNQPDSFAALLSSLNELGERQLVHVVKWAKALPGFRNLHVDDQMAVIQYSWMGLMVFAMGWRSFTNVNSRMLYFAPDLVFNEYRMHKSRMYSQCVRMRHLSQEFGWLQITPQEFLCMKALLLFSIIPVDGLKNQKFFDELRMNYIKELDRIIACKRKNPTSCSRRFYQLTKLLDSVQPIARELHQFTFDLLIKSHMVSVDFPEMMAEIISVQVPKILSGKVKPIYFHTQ
Protein cereblon/Androgen receptor (Homo sapiens, UniProt P10275+Q96SW2), sequence (Q96SW2 whole entry): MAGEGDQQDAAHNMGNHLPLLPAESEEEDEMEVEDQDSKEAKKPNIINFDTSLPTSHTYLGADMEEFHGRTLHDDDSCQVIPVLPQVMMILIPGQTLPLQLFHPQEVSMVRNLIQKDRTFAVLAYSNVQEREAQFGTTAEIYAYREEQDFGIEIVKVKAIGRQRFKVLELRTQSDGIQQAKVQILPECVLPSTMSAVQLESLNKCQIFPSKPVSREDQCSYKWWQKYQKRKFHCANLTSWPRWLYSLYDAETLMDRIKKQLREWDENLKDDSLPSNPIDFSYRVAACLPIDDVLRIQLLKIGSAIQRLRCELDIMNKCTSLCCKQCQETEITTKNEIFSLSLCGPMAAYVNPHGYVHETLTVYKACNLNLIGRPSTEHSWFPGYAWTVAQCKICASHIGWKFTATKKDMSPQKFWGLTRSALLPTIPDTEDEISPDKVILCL
Protein cereblon/Androgen receptor (Homo sapiens, UniProt P10275+Q96SW2, T878A), sequence (P10275 whole entry T878A, stated change not applied): as the sequence (P10275 whole entry) above, with T878A counted along it
Protein cereblon/Androgen receptor (Homo sapiens, UniProt P10275+Q96SW2, T878A), sequence (Q96SW2 whole entry, stated change not applied): as the sequence (Q96SW2 whole entry) above

## C[C@H]1CC2(CCN(c3ccc(C(=O)N4CCC(CN5Cc6cc7c(cc6C5)C(=O)N(C5CCC(=O)NC5=O)C7=O)CC4)cc3)CC2)CN1c1ccc(C#N)c(Cl)c1 (some centres not stated)
[1]
  half-life at […]: > 1 h
[2]
  Cmax: 1030 ng/mL
[3]
  half-life: > 2 h
[4]
  remaining at 2 h: 62%
[5]
  remaining at 2 h: 69%
[6]
  remaining at 2 h: 87%
In vivo [7]
  Cmax at 24 h: 871 ng/mL
[8]
  remaining at 2 h: 92%
VCaP [9]
  inhibition in vivo at 40 mg/kg: 85%
[10]
  AUC(0-t) at 24 h: 10300 ng·h/mL
[11]
  half-life: > 2 h
[12]
  half-life: > 2 h
[13]
  half-life at 24 h: 5.6 h
[14]
  half-life: 9.62 h
[15]
  DC50: 1.1 nM
[16]
  Vd: 0.23 L/kg
[17]
  Vd: 2.07 L/kg
In vivo [18]
  bioavailability at 24 h: 44%
[19]
  Tmax: 3.33 h
[20]
  clearance: 3.33 mL/min/kg
[21]
  bioavailability: 67%
[22]
  half-life: 9.9 h
[23]
  half-life at […]: > 1 h
[24]
  half-life at […]: > 1 h
[25]
  clearance: 0.667 mL/min/kg
[26]
  half-life: > 2 h
[27]
  half-life: 10 h
[28]
  DC50: 0.1 nM
[29]
  half-life: 27.4 h
[30]
  AUC(0-t) at 24 h: 4860 ng·h/mL
[31]
  half-life: 4.4 h
[32]
  Cmax: 9120 ng/mL
[33]
  bioavailability: 99%
[34]
  Activity: Non-Toxic
[35]
  Cmax: 1520 ng/mL
VCaP [36]
  IC50: 11.5 nM
[37]
  half-life: > 2 h
[38]
  Tmax: 4 h
[39]
  bioavailability: 31%
VCaP [40]
  inhibition in vivo at 10 mg/kg: 50%
[41]
  remaining at 2 h: 82%
In vivo [42]
  AUC(0-t) at 24 h: 5490 ng·h/mL
[43]
  half-life: > 2 h
[44]
  Tmax: 3 h
In vivo [45]
  AUC(0-t) at 24 h: 6020 ng·h/mL
[46]
  remaining at 2 h: 52%
[47]
  Vd at 24 h: 1.7 L/kg
